According to patent US20140314747A1, “PREDICTING RESPONSE TO EGFR INHIBITORS” (Genentech, Inc., priority 2013, published 2014):

Columns and labels:
Type in all cases: cell-based, mouse
[1] = tested on: mesenchyme free lung explants (lung epithelium in Matrigel); experiment: mesenchyme-free lung explant culture, growth and branching
Procedure: (§1) Pancreas and individual lobes of the lungs were dissected from embryos harvested from timed pregnancy setups. Embryonic explants were cultured on 12 mm Transwell® with 0.4 μm polyester membrane insert (Corning, Tewsbury, Mass.) at the air-liquid interface in DME media with 10% fetal calf serum, glutamine and penicillin-streptomycin. For longer-term cultures (>3 days), media was changed daily.
For mesenchyme-free cultures, lungs were dissected and incubated in Collagenase/Dispase (1 mg/ml for each) for 10-15 minutes at room temperature. Epithelial tissue was removed by mechanical dissection, transferred to the Transwell® plates, and covered with 5-10 μl of 1:1 Matrigel:DME. After Matrigel was solidified, 400 μl media (DME/10% FCS/glutamine/pen-strep+200 ng/ml FGF7 (Life Technologies, Carlsbad, Calif.), FGF1 (Life Technologies), or EGF (Life Technologies)) was added to top and bottom wells. Erlotinib (Tarceva®, 1 μM hydrochloride salt; OSI Pharmaceuticals) or DMSO was added as indicated.
(§2) Embryonic explants were fixed in 4% paraformaldehyde, permeabilized in PBS with 2% BSA, 0.1% saponin or 0.1% Triton-X100. After washing, tissues were stained with anti-E-cadherin (Santa Cruz). Explants were mounted and imaged with a Leica SP5 laser confocal microscope. Images shown are representative of multiple independent experiments (n≧5) with littermate explants that were cultured, stained and imaged under substantially the same conditions and settings.
(§3) Homozygous germline mutations in LKB1 in mice are early embryonic lethal. […] This allele (Lkb1^MG) was “knocked-in” to the endogenous LKB1 locus to generate a genetically engineered mouse line that has been described in detail elsewhere (Lo et al., 2012, J. Cell. Biol., 199: 1117-1130). Lung and pancreas tissues from Lkb1^MG/MG embryos and wild-type littermates were dissected and grown in vitro for several days. Lung cultures were grown both as whole mount explants, and “mesenchyme-free” where most of the mesenchyme and other tissue types were stripped from the lung epithelium and the epithelium was cultured in Matrigel (Lu et al., 2005, J. Biol. Chem., 280: 4834-4841). During this time, the response of these tissues to growth factors was assessed.

[2] = tested on: whole mount lung explants; experiment: whole mount lung explant culture, growth; details: for size of terminal buds: addition of EGF
Procedure: as §1, §2, §3

[3] = tested on: pancreatic explants; experiment: pancreatic explant culture, cyst formation
Procedure: as §1, §2, §3

## C#Cc1cccc(Nc2ncnc3cc(OCCOC)c(OCCOC)cc23)c1 [erlotinib]
[1]; mesenchyme free cultures, erlotinib 1 μM, EGF + NMPP1
  effect on EGF-induced growth: inhibited
[2]; whole mount cultures, erlotinib 1 μM, EGF + NMPP1
  effect on EGF-induced growth: inhibited
[3]; erlotinib 1 μM, Lkb1 inhibition (NMPP1) with EGF
  effect on development of the cystic phenotype: inhibits the development of the cystic phenotype

## EGF: epidermal growth factor (Life Technologies) added to explant media (NSDSECPLSHDGYCLHDGVCMYIEALDKYACNCVVGYIGERCQYRDLKWWELR; UniProt P01133 971-1023, looked up)
[1]; Lkb1 MG/MG explants, EGF 100 ng/ml in the presence of NMPP1
  growth: substantial growth
[1]; Lkb1 wt/wt explants, EGF 100 ng/ml in the presence of NMPP1
  growth compared to no growth factor: modest increase in growth
[2]; LKB1 wt/wt lungs
  size of terminal buds: only a modest increase in size
[2]; Lkb1 MG/MG lungs
  size of terminal buds: substantial enlargement of the terminal buds
[3]; EGF 100 ng/ml, with Lkb1 inhibition
  development of the cystic phenotype: accelerates the development of the cystic phenotype
[3]; EGF, in the absence of Lkb1 inhibition
  cyst formation: does not by itself promote cysts

## FGF-1: fibroblast growth factor (FGF)-1 (Life Technologies)
[1]; both LKB1 wt/wt and LKB1 MG/MG, presence and absence of NMPP1
  growth of mesenchyme free lung cultures: robust growth
